Where two headings read alike, the source gives them in different places.
Experiment: First rat intraduodenal study, sodium caprate as permeation enhancer (Example 4)
Format: in vivo
Conditions: for AUC / Cmax / Tmax / half-life: in vivo; for bioavailability: plasma
Description: Solution formulations comprising GLP-1 peptide analogs were injected into rats in the duodenum segment of the small intestine. The first ID study involved the use of sodium caprate as the permeation enhancer and the SEQ ID NO:3 GLP-1 peptide analog. Absolute bioavailability (% F) is a percentage-expressed measure of systemic drug exposure after oral, or in the current example intraduodenal, administration to the systemic exposure generated with intravenous (IV) administration of drug solution. Absolute bioavailability, (% F), is calculated as a percentage of systemic, or blood, drug concentration area under curve (AUC) of the AUC of IV administration adjusted to the amounts of drug given via these routes of administration.

[1] = Intraduodenal, 1 mg/kg peptide, 0 mg/kg sodium caprate, 0.5 mg/mL in PBS pH 8.0
[2] = 50 mg/kg, pH 8.5, rat, Intraduodenal, 50 mg/kg peptide + 50 mg/kg sodium caprate, PBS pH 8.5
[3] = iv, 0.01 mg/kg, pH 8, rat, 0.01 mg/kg peptide in PBS pH 8.0
[4] = pH 8, rat, Intraduodenal, 1 mg/kg peptide, 0 mg/kg sodium caprate, 0.5 mg/mL in PBS pH 8.0
[5] = pH 8.5, rat, Intraduodenal, 1 mg/kg peptide + 50 mg/kg sodium caprate, PBS pH 8.5
[6] = pH 8.5, rat, Intraduodenal, 10 mg/kg peptide + 50 mg/kg sodium caprate, PBS pH 8.5
[7] = sc, 0.118 mg/kg, Subcutaneous, 0.118 mg/kg peptide in 0.1% BSA-PBS

SMILES: CC[C@H](C)[C@H](NC(=O)C(C)(Cc1ccccc1)NC(=O)[C@H](CCC(=O)O)NC(=O)[C@H](CCCCNC(=O)COCCOCCNC(=O)COCCOCCNC(=O)CC[C@H](NC(=O)CCCCCCCCCCCCCCCCC(=O)O)C(=O)O)NC(=O)[C@H](C)NC(=O)[C@H](C)NC(=O)[C@H](CCC(=O)O)NC(=O)CNC(=O)[C@H](CCC(=O)O)NC(=O)[C@H](CC(C)C)NC(=O)C(C)(Cc1ccccc1)NC(=O)[C@H](CO)NC(=O)C(C)(CO)NC(=O)[C@@H](NC(=O)[C@H](CC(=O)O)NC(=O)[C@H](CO)NC(=O)[C@@H](NC(=O)C(C)(Cc1ccccc1)NC(=O)[C@H](CO)NC(=O)CNC(=O)[C@H](CCC(=O)O)NC(=O)C(C)(C)NC(=O)[C@@H](N)Cc1c[nH]cn1)[C@@H](C)O)C(C)C)C(=O)N[C@@H](C)C(=O)NC(C)(Cc1ccccc1)C(=O)N[C@H](C(=O)N[C@H](C(=O)NC(C)(CCCCN)C(=O)NCC(=O)NCC(N)=O)C(C)C)C(C)C (stereo partly drawn) [SEQ ID NO: 3, Free-H-[AIB]-EGS-[αMePhe]-TSDV-[αMeSer]-S-[αMePhe]-LEGEAAK[(PEG2)2-γE-Stearate]-E-[αMePhe]-IA-[αMePhe]-VV-[αMeLys]-GG-amide]
- improvement in permeation (ID, 1 mg/kg peptide, 50 mg/kg sodium caprate (to 0.15%)): ~5 fold
- F (Intraduodenal, 1 mg/kg peptide + 50 mg/kg sodium caprate, PBS pH 8.5): 0.15%
- F [1]: 0.035%
- F (Intraduodenal, 10 mg/kg peptide + 50 mg/kg sodium caprate, PBS pH 8.5): 0.29%
- F (Intraduodenal, 50 mg/kg peptide + 50 mg/kg sodium caprate, PBS pH 8.5): 0.71%
- F (Intravenous, 0.01 mg/kg peptide in PBS pH 8.0): 100%
- AUC [2]: 46000 ng·h/mL
- Cmax [2]: 6300 ng/mL
- Tmax [2]: 0.44 h
- half-life (50 mg/kg, pH 8.5, rat, Intraduodenal, 50 mg/kg peptide + 50 mg/kg sodium caprate, PBS pH 8.5, read-out: T ½ (converted)): 8.3 h
- AUC [3]: 1300 ng·h/mL
- Cmax [3]: 210 ng/mL
- Tmax [3]: 0.12 h
- half-life (iv, 0.01 mg/kg, pH 8, rat, Intravenous, 0.01 mg/kg peptide in PBS pH 8.0, read-out: T ½ (converted)): 10 h
- AUC [4]: 45 ng·h/mL
- Cmax [4]: 5.1 ng/mL
- Tmax [4]: 2.3 h
- half-life (pH 8, rat, Intraduodenal, 1 mg/kg peptide, 0 mg/kg sodium caprate, 0.5 mg/mL in PBS pH 8.0, read-out: T ½ (converted)): 8.8 h
- AUC [5]: 200 ng·h/mL
- Cmax [5]: 34 ng/mL
- Tmax [5]: 0.38 h
- half-life (pH 8.5, rat, Intraduodenal, 1 mg/kg peptide + 50 mg/kg sodium caprate, PBS pH 8.5, read-out: T ½ (converted)): 9.3 h
- AUC [6]: 3800 ng·h/mL
- Cmax [6]: 470 ng/mL
- Tmax [6]: 0.44 h
- half-life (pH 8.5, rat, Intraduodenal, 10 mg/kg peptide + 50 mg/kg sodium caprate, PBS pH 8.5, read-out: T ½ (converted)): 10 h
- AUC [7]: 11000 ng·h/mL
- Cmax [7]: 460 ng/mL
- Tmax [7]: 9 h
- half-life (sc, 0.118 mg/kg, Subcutaneous, 0.118 mg/kg peptide in 0.1% BSA-PBS, read-out: T ½ (converted)): 11 h
- increase of bioavailability (intraduodenal, 0.71% with 50 mg/kg sodium caprate vs 0.035% without formulation intervention): ~20 fold
- bioavailability [1]: 0.035%
- bioavailability (sc, Subcutaneous, 0.118 mg/kg peptide in 0.1% BSA-PBS): 71%

Source: patent US11173124B2, “Oral delivery of GLP-1 peptide analogs” (MEDIMMUNE LIMITED, priority 2017, dated 2021)
